The source of these data is the NIST ThermoML archive (doi:10.1021/je4004965).

The nature of series [1]: molar heat capacity at constant pressure. The following applies: 101.33 kPa, Liquid, Small sample (50 mg) DSC.
The conditions of series [2]: 101.33 kPa, Liquid; for speed of sound: Pulse-echo method; for mass density: Vibrating tube method.

The structures appear in SMILES notation. ± gives the expanded uncertainty stated by the source.

For `CCn1cc[n+](C)c1.F[B-](F)(F)F` [1-ethyl-3-methylimidazolium tetrafluoroborate], the “molar heat capacity at constant pressure” value amounted to 303.73 ± 4.7 J/K/mol in series [1] (293.15 K), 305.35 ± 4.7 J/K/mol in series [1] (298.15 K), 306.16 ± 4.7 J/K/mol in series [1] (303.15 K) and 308.94 ± 4.8 J/K/mol in series [1] (308.15 K). Also, the speed of sound came out at 1631.1 ± 2.2 m/s in series [2] (293.15 K), 1619.4 ± 2.1 m/s in series [2] (298.15 K), 1607.6 ± 2.1 m/s in series [2] (303.15 K) and 1596.3 ± 2.1 m/s in series [2] (308.15 K). For the same molecule, the mass density in series [2] (293.15 K) worked out at 1283.89 ± 1.7 kg/m3; in series [2] (298.15 K) it was 1279.91 ± 1.7 kg/m3; in series [2] (303.15 K), 1276.26 ± 1.7 kg/m3; in series [2] (308.15 K), 1272.07 ± 1.7 kg/m3.

Take `Cc1ccccc1N` [2-methylaniline]: the “molar heat capacity at constant pressure” value in series [1] (293.15 K) is 215.96 ± 3.4 J/K/mol; in series [1] (298.15 K), 217.16 ± 3.4 J/K/mol; in series [1] (303.15 K), 218.43 ± 3.4 J/K/mol; in series [1] (308.15 K) it was 219.52 ± 3.4 J/K/mol. Further, the speed of sound in series [2] (293.15 K) is 1622.2 ± 1.3 m/s; in series [2] (298.15 K) it was 1602.3 ± 1.3 m/s; in series [2] (303.15 K), 1577.7 ± 1.3 m/s; in series [2] (308.15 K), 1558.2 ± 1.3 m/s. The mass density in series [2] (293.15 K) was 998.431 ± 1 kg/m3; in series [2] (298.15 K), 994.358 ± 1 kg/m3; in series [2] (303.15 K), 990.23 ± 1 kg/m3; in series [2] (308.15 K), 986.064 ± 1 kg/m3.

As to `Cc1ccccn1` [2-methylpyridine], the “molar heat capacity at constant pressure” value was found to be 157.07 ± 2.4 J/K/mol in series [1] (293.15 K), 158.86 ± 2.5 J/K/mol in series [1] (298.15 K), 160.14 ± 2.5 J/K/mol in series [1] (303.15 K) and 160.66 ± 2.5 J/K/mol in series [1] (308.15 K). Moreover, the speed of sound worked out at 1400.5 ± 2.1 m/s in series [2] (293.15 K), 1380.1 ± 2.1 m/s in series [2] (298.15 K), 1361 ± 2.1 m/s in series [2] (303.15 K) and 1339.9 ± 2.1 m/s in series [2] (308.15 K). Moreover, the mass density amounted to 944.401 ± 1.2 kg/m3 in series [2] (293.15 K), 939.802 ± 1.2 kg/m3 in series [2] (298.15 K), 935.117 ± 1.2 kg/m3 in series [2] (303.15 K) and 930.414 ± 1.2 kg/m3 in series [2] (308.15 K).

Take `Cc1cccnc1` [3-methylpyridine]: the “molar heat capacity at constant pressure” value stood at 156.05 ± 2.4 J/K/mol in series [1] (293.15 K), 158.75 ± 2.5 J/K/mol in series [1] (298.15 K), 160.83 ± 2.5 J/K/mol in series [1] (303.15 K) and 160.96 ± 2.5 J/K/mol in series [1] (308.15 K). The speed of sound in series [2] (293.15 K) amounted to 1445.9 ± 1.2 m/s; in series [2] (298.15 K) it was 1424 ± 1.2 m/s; in series [2] (303.15 K), 1404.1 ± 1.2 m/s; in series [2] (308.15 K), 1384 ± 1.2 m/s. The mass density in series [2] (293.15 K) came out at 956.581 ± 1 kg/m3; in series [2] (298.15 K), 952.002 ± 1 kg/m3; in series [2] (303.15 K) it was 947.449 ± 1 kg/m3; in series [2] (308.15 K) it was 942.831 ± 1 kg/m3.

`Cc1ccncc1` [4-methylpyridine]: the “molar heat capacity at constant pressure” value in series [1] (293.15 K) turned out to be 155.88 ± 2.4 J/K/mol; in series [1] (298.15 K), 158.52 ± 2.5 J/K/mol; in series [1] (303.15 K), 160.84 ± 2.5 J/K/mol; in series [1] (308.15 K), 160.83 ± 2.5 J/K/mol. Besides, the speed of sound in series [2] (293.15 K) worked out at 1451.1 ± 1.2 m/s; in series [2] (298.15 K) it was 1431.5 ± 1.2 m/s; in series [2] (303.15 K), 1410.7 ± 1.2 m/s; in series [2] (308.15 K), 1389.9 ± 1.2 m/s. Further, the mass density in series [2] (293.15 K) is recorded as 955.099 ± 1 kg/m3; in series [2] (298.15 K) it was 950.179 ± 1 kg/m3; in series [2] (303.15 K), 945.413 ± 1 kg/m3; in series [2] (308.15 K), 940.821 ± 1 kg/m3.

For `c1ccncc1` [pyridine], the “molar heat capacity at constant pressure” value in series [1] (293.15 K) turned out to be 130.49 ± 2 J/K/mol; in series [1] (298.15 K) it was 131.74 ± 2 J/K/mol; in series [1] (303.15 K), 132.71 ± 2.1 J/K/mol; in series [1] (308.15 K), 133.82 ± 2.1 J/K/mol. In addition, the speed of sound in series [2] (293.15 K) was 1442 ± 1.2 m/s; in series [2] (298.15 K) it was 1417.8 ± 1.2 m/s; in series [2] (303.15 K), 1398 ± 1.2 m/s; in series [2] (308.15 K) it was 1377.1 ± 1.2 m/s. The mass density stood at 983.191 ± 1 kg/m3 in series [2] (293.15 K), 978.249 ± 1 kg/m3 in series [2] (298.15 K), 973.224 ± 1 kg/m3 in series [2] (303.15 K) and 968.166 ± 1 kg/m3 in series [2] (308.15 K).

What is called speed of sound is how fast a sound wave travels through the sample. For orientation: mass density means mass per unit of volume.
